Where “and” joins values, the source holds several entries; their conditions need not be identical. Equal entries are not always repeated.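 Compound exposure: 48 hours, 5 concentrations, 96-well plates. At the GI50, growth is halved. TGI denotes the concentration required for complete inhibition of growth.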
Key:
Test in all cases: NCI-60 cell line screen, 48 h
HL-60(TB) leukemia = tested on: HL-60(TB) leukemia
NCI-H226 lung = tested on: NCI-H226 lung
OVCAR-3 ovarian = tested on: OVCAR-3 ovarian
OVCAR-5 ovarian = tested on: OVCAR-5 ovarian
SF-295 CNS = tested on: SF-295 CNS
SF-539 CNS = tested on: SF-539 CNS
U251 CNS = tested on: U251 CNS
SNB-19 CNS = tested on: SNB-19 CNS
DU-145 prostate = tested on: DU-145 prostate
BT-549 breast = tested on: BT-549 breast

Row | SMILES | TGI (HL-60(TB) leukemia) [µM] | TGI (NCI-H226 lung) [µM] | TGI (OVCAR-3 ovarian) [µM] | TGI (OVCAR-5 ovarian) [µM] | TGI (SF-295 CNS) [µM] | TGI (SF-539 CNS) | TGI (U251 CNS) [µM] | TGI (SNB-19 CNS) [µM] | GI50 (DU-145 prostate) [µM] | TGI (DU-145 prostate) [µM] | GI50 (HL-60(TB) leukemia) | GI50 (NCI-H226 lung) [µM] | GI50 (OVCAR-3 ovarian) | GI50 (OVCAR-5 ovarian) [µM] | GI50 (SF-295 CNS) | GI50 (SF-539 CNS) | GI50 (SNB-19 CNS) [µM] | GI50 (U251 CNS) | GI50 (BT-549 breast) [µM] | TGI (BT-549 breast) [µM]
1 | C/C(=N\NC(N)=S)c1cc(C)c(C)cc1C | 65.5 | > 100 | 60.3 | 46.5 | > 100 | > 100 µM | > 100 | – | – | – | – | – | – | – | – | – | – | – | – | –
2 | O=C(C=Nc1ccccc1C(=O)[O-])c1cccs1.O=C(C=Nc1ccccc1C(=O)[O-])c1cccs1.[Co+2] | > 100 | – | 95.1 | > 100 | > 100 | > 100 µM | > 100 | > 100 | – | – | – | – | – | – | – | – | – | – | – | –
3 | CCOc1ccccc1NC(=O)c1cc2ccccc2cc1O | 5.47 | 10.8 | 8.98 | 27.7 | 9.46 | 15.8 µM | 11.6 | 25.1 | 3.71 | 14.5 | 2310 nM | 2.81 | 3.16 µM | 7.06 | 2.84 µM | 3.05 µM | 4.28 | 3.11 µM | – | –
4 | CC1(Cl)CC2OC3(Br)C=CC(C)(O)C2(CC1Br)C3(C)C (centres undefined) | > 100 | > 100 | > 100 | > 100 | > 100 | > 100 µM | > 100 | > 100 | – | – | – | – | – | – | – | – | – | – | – | –
5 | C/C=C/C1=C(Cl)C(=O)[C@@H](Cl)[C@@]1(O)C(=O)OC | 4.28 | 15.7 | 6.94 | 24.5 | 27.9 | 5.45 µM | 18.8 | 19.9 | – | – | – | – | – | – | – | – | – | – | – | –
6 | COc1ccc(-n2cc(-c3cc(OC)c(OC)c(OC)c3)nc2SCc2ccccc2)cc1 | > 100 | > 100 | > 100 | > 100 | > 100 | > 100 µM | > 100 | > 100 | > 100 | > 100 | 10000 nM | > 100 | 47.4 µM | > 100 | > 100 µM | > 100 µM | > 100 | 43.8 µM | – | –
7 | CC1OC(n2ccc(=O)[nH]c2=O)C=C(OC(=O)c2ccccc2)C1=O (centres undefined) | > 100 | – | 53.4 | – | > 100 | > 100 µM | 81.3 | > 100 | – | – | – | – | – | – | – | – | – | – | – | –
8 | O=C(CCC(=O)Nc1cccc(Cl)c1)CC(=O)c1ccc(F)cc1 | > 100 | > 100 | > 100 | > 100 | 61.2 | > 100 µM | – | > 100 | – | – | – | – | – | – | – | – | – | – | – | –
9 | [Cl][Sn]([Cl])([c]1ccccc1)[c]1ccccc1 | 31.1 | 32.2 | 26.2 | 29.3 | 33.5 | 29.4 µM | 28.6 | 27.7 | – | – | 4030 nM | 17.7 | 13.4 µM | 15.8 | 17 µM | 16 µM | 14.6 | 13.4 µM | – | –
10 | CC(C)(O)C#Cc1ccc(/C=C/C(=O)c2ccccc2)s1 | – | 42.3 | 31.5 | 32 | 35.5 | 29.2 µM | 26.5 | 31.7 | 14.9 | 28.1 | – | 18.8 | 17 µM | 16.5 | 17.7 µM | 15.8 µM | 16.9 | 13.6 µM | 16.2 | 30.8
11 | O=C1c2cccnc2C(=O)C2C3C=CC(C3)C12 (centres undefined) | – | 32 | 31.8 | 35.8 | 26.6 | 13.4 µM | 16.7 | 34.3 | – | 19.8 | – | – | – | – | – | – | – | – | – | 24
12 | O=S(=O)(N/N=C/c1ccc(Cl)c(Cl)c1)c1ccccc1 | > 100 | > 100 | > 100 | > 100 | > 100 | > 100 µM | > 100 | – | – | – | – | – | – | – | – | – | – | – | – | –
13 | CCOC(=O)c1c(-c2ccccc2)oc(-c2ccccc2)c1C(=O)OCC | > 100 | > 100 | > 100 | > 100 | > 100 | > 100 µM | > 100 | > 100 | – | – | – | – | – | – | – | – | – | – | – | –
14 | Cc1cc(Cl)cc2c(N=Nc3ccccc3[N+](=O)[O-])c(O)[nH]c12 | > 100 | – | > 100 | > 100 | > 100 | > 100 µM | > 100 | > 100 | – | > 100 | – | – | – | – | – | – | – | – | – | > 100
15 | Cn1c2c(c3ccccc31)CCN(CCN1CCN(c3ccccc3)CC1)C2=O | > 100 | – | – | – | > 100 | > 100 µM | > 100 | – | – | – | – | – | – | – | – | – | – | – | – | –
16 | COc1cc2c(cc1O)-c1c(cnn1-c1ccc([N+](=O)[O-])cc1)CCC2 | – | 47.5 | 55.2 | 61.2 | 82.5 | 33.4 µM | 24.9 | > 100 | – | > 100 | – | – | – | – | – | – | – | – | – | 76.1
17 | CC(=O)O[C@@]12CO[C@@H]1C[C@H](O)[C@@]1(C)C(=O)[C@H](O)C3=C(C)[C@@H](OC(=O)[C@H](O)[C@@H](NC(=O)OC(C)(C)C)c4ccccc4)C[C@@](O)([C@@H](OC(=O)c4ccccc4)[C@H]21)C3(C)C | – | 43.4 | 0.0244 | – | 0.133 | 0.0612 µM and 0.0251 µM | 28.3 | – | – | 78.2 | 3.16 nM and 3.42 nM | 0.00366 | 0.0296 µM and 0.00642 µM | – | 0.0123 µM and 0.0146 µM | 0.00666 µM and 0.0056 µM | 0.00175 | 0.00244 µM and 0.00364 µM | – | –
18 | O=c1c2ccccc2c(Br)c(Br)c2ccccc12 | – | 79.5 | 12 | > 100 | 36 | 37.2 µM | 29 | > 100 | 4.02 | 15.8 | – | 24.1 | 3.37 µM | 30.2 | 17.1 µM | 13.3 µM | 45.4 | 12.6 µM | 19 | 34.4
19 | Nc1nc(N)c(Cn2ccnc2)c(=O)[nH]1 | – | > 100 | > 100 | > 100 | > 100 | > 100 µM | > 100 | > 100 | – | > 100 | – | – | – | – | – | – | – | – | – | > 100

— PubChem BioAssay (NCI)
